Data reported in patent US7932277B2, “Peptide inhibitors of hepatitis C virus replication” (InterMune, Inc., priority 2007, dated 2011).
Like-named read-outs stand apart in the source and are kept apart here.

Columns and labels:
[1] = target: T1, NS3/NS4A-2 (full-length HCV NS3 protease complexed with NS4A-2) (Hepatitis C virus genotype 1a, UniProt P27958); assay: NS3 inhibition assay (NS3-NS4 protease assay); format: biochemical
T1 construct: Recombinant E. coli or Baculovirus full-length NS3; host or cells: E. coli or baculovirus (insect cells)
Experimental: Recombinant E. coli or Baculovirus full-length NS3 was diluted to 3.33 μM with assay buffer and transferred material to an eppendorf tube and place in water bath in 4° C. refrigerator. The appropriate amount of NS4A-2 to 8.3 mM in assay buffer was added to equal the volume of NS3 in step 2.1.1 (conversion factor −3.8 mg/272 μL assay buffer). The material was transferred to an eppendorf tube and place in water bath in 4° C. refrigerator.
After equilibration to 4° C., equal volumes of NS3 and NS4A-2 solutions were combined in an eppendorf tube, mix gently with a manual pipettor, and incubate mixture for 15 minutes in the 4° C. water bath. Final concentrations in the mixture are 1.67 μM NS3, 4.15 mM NS4A-2 (2485-fold molar excess NS4A-2).
After 15 minutes at 4° C., the NS3/NS4A-2 eppendorf tube was removed and place it in a room temperature water bath for 10 minutes. NS3/NS4A-2 was aliquoted at appropriate volumes and store at −80° C. (E. coli NS3 run at 2 nM in assay, aliquot at 25 μL. BV NS3 run at 3 nM in assay, aliquot at 30 μL).
Sample compounds were dissolved to 10 mM in DMSO then diluted to 2.5 mM (1:4) in DMSO. Typically, compounds were added to an assay plate at 2.5 mM concentration, yielding upon dilution a starting concentration of 50 microM in the assay inhibition curve. Compounds were serial diluted in assay buffer to provide test solutions at lower concentrations.
The E. coli. NS3/NS4A-2 was diluted to 4 nM NS3 (1:417.5 of 1.67 μM stock−18 μL1.67 μM stock+7497 μL assay buffer). The BV NS3/NS4A-2 was diluted to 6 nM NS3 (1:278.3 of 1.67 μM stock−24 μL1.67 μM stock+6655 μL assay buffer). Using the manual multichannel pipettor, careful not to introduce bubbles into the plate, add 50 μL assay buffer to wells A01-H01 of a black Costar 96-well polypropylene storage plate.
Using the manual multichannel pipettor, careful not to introduce bubbles into the plate, add 50 μL of diluted NS3/NS4A-2 from step 2.2.6 to wells A02-H12 of plate in step 2.2.7. Using the manual multichannel pipettor, careful not to introduce bubbles into the plate, transfer 25 μL of the wells in drug dilution plate in step 2.2.5 to corresponding wells in assay plate in step 2.2.8. Change tips on multichannel pipettor for each row of compounds transferred. Using the manual multichannel pipettor, careful not to introduce bubbles into the plate, mix the wells from the assay plate in step 2.2.9 by aspirating and dispensing 35 μL of the 75 μL in each well five times. Change tips on multichannel pipettor for each row of wells mixed. Cover plate with a polystyrene plate lid and pre-incubate the plate from step 2.2.10 containing NS3 protease and sample compounds 10 minutes at room temperature. While plate from step 2.2.11 is pre-incubating, dilute RETS1 substrate in a 15 mL polypropylene centrifuge tube. Dilute RETS1 substrate to 8 μM (1:80.75 of 646 μM stock−65 μL 646 μM stock+5184 μL assay buffer).
After the plate in step is done pre-incubating, and using the manual multichannel, add 25 μL of substrate to all wells on the plate. Quickly mix the plate as in step 2.2.10, mixing 65 μL of the 100 μL in the wells.
Read the plate in kinetic mode on the Molecular Devices SpectraMax Gemini XS plate reader. Reader settings: Read time: 30 minutes, Interval: 36 seconds, Reads: 51, Excitation λ: 335 nm, Emission λ: 495 nm, cutoff: 475 nm, Automix: off, Calibrate: once, PMT: high, Reads/well: 6, Vmax pts: 21 or 28/51 depending on length of linearity of reaction
IC50s are determined using a four parameter curve fit equation, and converted to Ki's using the following Km's: • Full-length E. coli NS3−2.03 μM • Full-length BV NS3−1.74 μM • where Ki=IC50/(1+[S]/Km)) • Quantitation by ELISA of the Selectable Marker Protein, Neomycin Phosphotransferase II (NPTII) in the HCV Sub-Genomic Replicon, GS4.3

[2] = system: HCV sub-genomic replicon (1377/NS3-3') in HuH-7 hepatoma cells (GS4.3); assay: Quantitation by ELISA of NPTII in the HCV sub-genomic replicon, GS4.3; format: cell-based, hepatitis C virus (HCV); settings: read-out: Replicon EC50
Experimental: The HCV sub-genomic replicon (1377/NS3-3′, accession No. AJ242652), stably maintained in HuH-7 hepatoma cells, was created by Lohmann et al. Science 285: 110-113 (1999). The replicon-containing cell culture, designated GS4.3, was obtained from Dr. Christoph Seeger of the Institute for Cancer Research, Fox Chase Cancer Center, Philadelphia, Pa.
GS4.3 cells were maintained at 37° C., 5% CO2, in DMEM (Gibco 11965-092) supplemented with L-glutamine 200 mM (100×) (Gibco25030-081), non-essential amino acids (NEAA) (Biowhittaker 13-114E), heat-inactivated (HI) Fetal Bovine Serum (FBS) (Hyclone SH3007.03) and 750 μg/mL geneticin (G418)(Gibco 10131-035). Cells were sub-divided 1:3 or 4 every 2-3 days.
24 h prior to the assay, GS4.3 cells were collected, counted, and plated in 96-well plates (Costar 3585) at 7500 cells/well in 100 μL standard maintenance medium (above) and incubated in the conditions above. To initiate the assay, culture medium was removed, cells were washed once with PBS (Gibco 10010-023) and 90 μl Assay Medium (DMEM, L-glutamine, NEAA, 10% HI FBS, no G418) was added. Inhibitors were made as a 10× stock in Assay Medium, (3-fold dilutions from 10 μM to 56 pM final concentration, final DMSO concentration 1%), 10 μL were added to duplicate wells, plates were rocked to mix, and incubated as above for 72 h.
An NPTII Elisa kit was obtained from AGDIA, Inc. (Compound direct ELISA test system for Neomycin Phosphotransferase II, PSP 73000/4800). Manufacturer's instructions were followed, with some modifications. 10×PEB-1 lysis buffer was made up to include 500 μM PMSF (Sigma P7626, 50 mM stock in isopropanol). After 72 h incubation, cells were washed once with PBS and 150 μL PEB-1 with PMSF was added per well. Plates were agitated vigorously for 15 minutes, room temperature, then frozen at −70° C. Plates were thawed, lysates were mixed thoroughly, and 100 μl were applied to an NPTII Elisa plate. A standard curve was made. Lysate from DMSO-treated control cells was pooled, serially diluted with PEB-1 with PMSF, and applied to duplicate wells of the ELISA plate, in a range of initial lysate amount of 150 μL-2.5 μL. In addition, 100 μL buffer alone was applied in duplicate as a blank. Plates were sealed and gently agitated at room temperature for 2 h. Following capture incubation, the plates were washed 5×300 μL with PBS-T (0.5% Tween-20, PBS-T was supplied in the ELISA kit). For detection, a 1× dilution of enzyme conjugate diluent MRS-2 (5×) was made in PBS-T, into which 1:100 dilutions of enzyme conjugates A and B were added, as per instructions. Plates were resealed, and incubated with agitation, covered, room temperature, for 2 h. The washing was then repeated and 100 μL of room temperature TMB substrate was added. After approximately 30 minutes incubation (room temperature, agitation, covered), the reaction was stopped with 50 μL 3M sulfuric acid. Plates were read at 450 nm on a Molecular Devices Versamax plate reader.
Inhibitor effect was expressed as a percentage of DMSO-treated control signal, and inhibition curves were calculated using a 4-parameter equation: y=A+((B−A)/(1+((C/x)^D))), where C is half-maximal activity or EC50.

[3] = recombinant full-length NS3/NS4A-2, RETS1 substrate, kinetic fluorescence read, read-out: NS3-NS4 IC50
[4] = Hepatitis C virus, Huh-7, GS4.3 cells, 72 h incubation, NPTII ELISA

T1 sequence (P27958 1027-1657, one chain of several): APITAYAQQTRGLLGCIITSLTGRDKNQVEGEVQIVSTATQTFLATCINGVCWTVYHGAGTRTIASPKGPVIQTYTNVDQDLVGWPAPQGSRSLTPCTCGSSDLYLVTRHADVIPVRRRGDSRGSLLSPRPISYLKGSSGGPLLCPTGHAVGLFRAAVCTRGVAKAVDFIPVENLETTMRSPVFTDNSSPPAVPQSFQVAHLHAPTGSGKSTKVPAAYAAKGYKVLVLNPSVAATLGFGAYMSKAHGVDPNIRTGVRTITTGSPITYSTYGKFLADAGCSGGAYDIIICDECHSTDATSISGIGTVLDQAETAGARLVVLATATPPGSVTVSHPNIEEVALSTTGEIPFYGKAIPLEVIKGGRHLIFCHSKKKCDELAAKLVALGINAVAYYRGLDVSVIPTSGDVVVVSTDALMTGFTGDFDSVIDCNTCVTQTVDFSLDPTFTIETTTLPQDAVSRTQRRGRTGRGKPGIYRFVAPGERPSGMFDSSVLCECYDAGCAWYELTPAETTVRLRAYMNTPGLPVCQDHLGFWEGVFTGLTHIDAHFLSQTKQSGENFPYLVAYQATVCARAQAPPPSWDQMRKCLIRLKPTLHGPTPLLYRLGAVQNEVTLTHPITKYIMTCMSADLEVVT

| Compound | IC50 [1, 3] [nM] | EC50 [2, 4] [nM] | EC50 ([2]; GS4.3 cells, 72 h incubation, NPTII ELISA) [nM] | IC50 [1] [nM] | EC50 ([2]; Hepatitis C virus, Huh-7, 72 h) [nM] |
| --- | --- | --- | --- | --- | --- |
| CC[C@@H]1C[C@]1(NC(=O)[C@@H]1C[C@@H](OC(=O)N2Cc3cccc(Cl)c3C2)CN1C(=O)[C@@H](Nc1cccc(Oc2ccccc2)c1)C(C)(C)C)C(=O)NS(=O)(=O)C1CC1 [Compound 76] | < 100 | < 100 |  |  |  |
| CC(C)[C@H](Nc1cccc(C(C)(C)C)c1)C(=O)N1C[C@H](OC(=O)N2Cc3cccc(Cl)c3C2)C[C@H]1C(=O)N[C@]1(C(=O)NS(=O)(=O)C2CC2)C[C@H]1C1CC1 [Compound 59, [(3R,5S)-1-((S)-2-(3-tert-butylphenylamino)-3-methylbutanoyl)-5-((1R,2S)-1-(cyclopropylsulfonylcarbamoyl)-2-cyclopropylcyclopropylcarbamoyl)pyrrolidin-3-yl]4-chloroisoindoline-2-carboxylate] | < 100 | < 100 |  |  |  |
| C=C[C@@H]1C[C@]1(NC(=O)[C@@H]1C[C@@H](OC(=O)N2Cc3cccc(F)c3C2)CN1C(=O)[C@@H](Nc1ccc(F)cc1)C(C)C)C(=O)NS(=O)(=O)C1CC1 [Compound 33, (3R,5S)-5-((1R,2S)-1-(cyclopropylsulfonylcarbamoyl)-2-vinylcyclopropylcarbamoyl)-1-((S)-2-(4-fluorophenylamino)-3-methylbutanoyl)pyrrolidin-3-yl 4-fluoroisoindoline-2-carboxylate] | < 100 | 100 to 1000 |  |  |  |
| CC[C@@H]1C[C@]1(NC(=O)[C@@H]1C[C@@H](OC(=O)N2Cc3cccc(Cl)c3C2)CN1C(=O)[C@@H](Nc1cccc(C(F)(F)F)c1)C(C)(C)C)C(=O)NOCC1CC1 [Compound 72] | 100 to 1000 | 100 to 1000 |  |  |  |
| C=C[C@@H]1C[C@]1(NC(=O)[C@H]1Cc2cc(Oc3cccc(Cl)c3)ccc2CN1C(=O)[C@@H](Nc1ccc(F)cc1)C(C)(C)C)C(=O)NS(=O)(=O)C1CC1 [Compound 12, (R)-6-(3-chlorophenoxy)-N-((1R,2S)-1-(cyclopropylsulfonylcarbamoyl)-2-vinylcyclopropyl)-2-((S)-2-(4-fluorophenylamino)-3,3-dimethylbutanoyl)-1,2,3,4-tetrahydroisoquinoline-3-carboxamide] | 100 to 1000 | 10000 to 50000 |  |  |  |
| CC[C@@H]1C[C@]1(NC(=O)[C@@H]1C[C@@H](OC(=O)N2Cc3cccc(F)c3C2)CN1C(=O)[C@@H](Nc1cccc(Cl)c1)C(C)C)C(=O)NS(=O)(=O)C1CC1 [Compound 50, [(3R,5S)-1-((S)-2-(3-chlorophenylamino)-3-methylbutanoyl)-5-((1R,2R)-1-(cyclopropylsulfonylcarbamoyl)-2-ethylcyclopropylcarbamoyl)pyrrolidin-3-yl]4-fluoroisoindoline-2-carboxylate] | < 100 | < 100 |  |  |  |
| CC[C@@H]1C[C@]1(NC(=O)[C@@H]1C[C@@H](OC(=O)N2Cc3cccc(F)c3C2)CN1C(=O)[C@@H](Nc1cncc(C(F)(F)F)c1)C(C)C)C(=O)NS(=O)(=O)C1CC1 [Compound 48, [(3R,5S)-5-((1R,2R)-1-(cyclopropylsulfonylcarbamoyl)-2-ethylcyclopropylcarbamoyl)-1-((S)-3-methyl-2-(5-(trifluoromethyl)pyridin-3-ylamino)butanoyl)pyrrolidin-3-yl]4-fluoroisoindoline-2-carboxylate] | < 100 | 100 to 1000 |  |  |  |
| [(3R,5S)-5-((1R,2R)-1-(cyclopropylsulfonylcarbamoyl)-2-ethylcyclopropylcarbamoyl)-1-((S)-3,3-dimethyl-2-(3-(trifluoromethyl)phenylamino)butanoyl)pyrrolidin-3-yl]4-chloroisoindoline-2-carboxylate [Compound 55] | < 100 |  | < 100 |  |  |
| CC[C@@H]1C[C@]1(NC(=O)[C@@H]1C[C@@H](OC(=O)N2Cc3cccc(F)c3C2)CN1C(=O)[C@@H](Nc1cccc(C(C)(C)C#N)c1)C(C)C)C(=O)NS(=O)(=O)C1CC1 [Compound 53, [(3R,5S)-1-((S)-2-(3-(2-cyanopropan-2-yl)phenylamino)-3-methylbutanoyl)-5-((1R,2R)-1-(cyclopropylsulfonylcarbamoyl)-2-ethylcyclopropylcarbamoyl)-pyrrolidin-3-yl]4-fluoroisoindoline-2-carboxylate] | < 100 | < 100 |  |  |  |
| CC(C)(C)[C@H](Nc1cccc(C(F)(F)F)c1)C(=O)N1C[C@H]2[C@@H]([C@H]1C(=O)NC(CC1CCC1)C(=O)C(N)=O)C2(C)C (some centres unmarked) [Compound 68] |  |  |  | 100 to 1000 | 10000 to 50000 |
